Values after ≈ are worked out from the molar mass of the structure shown. Read-outs that look alike come from different tables or passages of the source. Residues, ends and D or L forms follow the SMILES beside them. *: point of attachment. Hexanoyl = CCCCCC(=O)*
Columns and labels:
mouse erythrocytes = conditions: AMPs 100 μM, 1 hour 37 °C, pos. 10% Triton X-100, neg. PBS, 3 x 2 replicates
Source text: (§1) Cytotoxicity studies are important during characterization of novel compounds or materials intended for interactions within human biological systems in vivo. Evaluation of the extent to which the compound induces disruption of the membrane of erythrocytes (red blood cells), thereby causing release of cellular content, often constitutes an initial step in such cytotoxicity assessments. The assay used in this context is generally referred to as the hemolysis assay, which has the advantages of being cheap, accessible, and simple to perform. Blood is drawn from a human or an animal, and next, the washed erythrocytes are incubated together with the compound or material under investigation. If the compound causes hemolysis, hemoglobin (along with other cellular constituents) will be released into the supernatant.
(§2) Blood from mice, rats, and rabbits was provided by the Department of Comparative Medicine at Oslo University Hospital (Marianne Aannestad). For mice and rats, the blood was collected from the heart by using 25 G and 21 G needles, respectively, whereas for rabbits, the blood was collected by free bleed through the ear using a yellow neoflon (24 G). All animals were wild type and anesthetized prior to the procedure.
(§3) All blood was collected in Lithium Heparin tubes 4 mL (Greiner Bio-One, Kremsmünster, Austria) or Coagulation sodium citrate 3.2% tubes 3 mL (Greiner Bio-One).
(§4) AMP 2 contained an N-terminal hexanoic acid moiety, whereas all peptides contained amidated C-termini. These three peptides were synthesized by Genscript Inc. (Piscataway, NJ, USA), and stock solutions of 1 mg/mL were made from the purchased powders. […] All peptides were diluted to yield a 100 μM final concentration in the hemolysis assays.
(§5) Triton X-100 (T8787) and Tween-20 (P2287) detergents were purchased from Sigma Aldrich and diluted to obtain 10% stock solutions by weighing (w/v). A sodium Dodecyl Sulfate (SDS) 10% solution was purchased from Invitrogen (Waltham, MA, USA, 15553027). All subsequent dilutions annotated in figures were made from these stocks.
(§6) As soon as possible after phlebotomy, the blood samples were centrifuged at 1700× g for 5 min. The supernatant was removed by aspiration and 2 mL of PBS pH 7 was added. The washing step was repeated three times or until the supernatant was clear. After final aspiration, the remaining pellet was diluted 1:100 in PBS pH 7 to obtain a 1% erythrocyte suspension (or 1:100, 1:50, and 1:20 for assays testing the effect of erythrocyte concentration). For experiments using whole blood, the washing steps were not performed, but downstream experimentation was identical. For experiments performed with 96-well plates, 50 μL of test compound, water, or detergent were mixed with 50 μL of blood sample (1% erythrocyte suspension or whole blood). For experiments using larger volumes, 250 μL of test compound, water, or detergent were mixed with 250 μL blood sample in an Eppendorf tube. Samples were subsequently incubated at 37 °C for 60 min (or 15, 30, 60, 90, or 120 min for assays evaluating the effect of incubation time). After incubation, the plates/tubes were centrifuged at 1700× g for 5 min, and then 50 μL of the supernatants were transferred to transparent, flat-bottom 96-well plates (Anicrin, A013418). Finally, absorption was measured at 405, 530, and 570 nm in a Victor Nivo Multimode microplate reader (Perkin Elmer, Waltham, MA, USA).

rabbit erythrocytes = conditions: AMPs 100 μM, 1 hour 37 °C, pos. 10% Triton X-100, neg. PBS, 3 x 2 replicates
Source text: as §1, §2, §3, §4, §5, §6

rabbit whole blood = conditions: for Hemolysis ratio: rabbit whole blood, AMPs 100 μM, 1 hour 37 °C, 3 x 2 replicates
Source text: as §1, §2, §3, §4, §5, §6

rat erythrocytes = conditions: AMPs 100 μM, 1 hour 37 °C, pos. 10% Triton X-100, neg. PBS, 3 x 2 replicates
Source text: as §1, §2, §3, §4, §5, §6

[1] = tested on: washed human erythrocytes; experiment: Flow cytometry of treated erythrocytes with live/dead amine-reactive stain; format: cell-based; conditions: washed human erythrocytes treated 60 minutes, AMPs 100 μM, amine-reactive dye 488, flow cytometry 533/30 nm
Description: Briefly, a 1% washed erythrocyte solution was diluted to ~10^5 cells/mL and 0.4% Trypan blue (1:1 ratio) was added before 10 μL of the stained cell suspension was added to the Countess cell counting chamber slide. After a 30 s incubation, the slide was inserted into the instrument for automatic cell counting.
The Countess II automated cell counter (see above) was used to adjust the negative control sample to ~10^5 cells/mL and to subsequently dilute all samples by the same factor. Then, 0.5 μL of live/dead amine-reactive dye 488 (Fisher Scientific, Waltham, MA, USA) was added to 0.5 mL cell suspension and incubated for 30 min protected from light. Subsequently, the samples were washed twice with PBS pH 7 containing 1% bovine serum albumin (BSA), and finally resuspended in PBS pH 7 with 1% BSA. Cells were next counted, and the fluorescence measured using the 533/30 nm filter in an Accuri C6 flow cytometer (BD Biosciences, Franklin Lakes, NJ, USA).

human whole blood = conditions: for Calculated hemolysis ratio: human whole blood, peptides 100 μM, 60 min 37 °C, neg. PBS, 3 x 2 replicates
E. coli = conditions: E. coli
[2] = tested on: washed human erythrocytes; experiment: Hemolysis assay, washed human erythrocytes

For CCCCCC(=O)N[C@@H](CCSC)C(=O)N[C@@H](CCCCN)C(=O)N[C@@H](CCCNC(=N)N)C(=O)N[C@@H](CCCCN)C(=O)N[C@@H](CCCCN)C(=O)N[C@@H](CCCCN)C(=O)N[C@H](C(=O)N[C@@H](CC(C)C)C(=O)N[C@H](C(=O)N[C@@H](CCCCN)C(=O)N[C@@H](CCCCN)C(=O)N[C@H](C(=O)N[C@@H](CC(C)C)C(=O)N[C@@H](CCCCN)C(=O)N[C@@H](CC(C)C)C(=O)N[C@@H](CCCCN)C(=O)N[C@@H](CO)C(=O)N[C@@H](CO)C(=O)N[C@@H](C)C(=O)N[C@@H](Cc1ccc(O)cc1)C(N)=O)C(C)C)[C@@H](C)CC)[C@@H](C)CC [AMP 2] (Hexanoyl-MKRKKKILIKKVLKLKSSAY-NH2), the Hemolysis ratio (mouse erythrocytes; Table S4: washed mouse erythrocytes, OD 405 nm) was 0.1 +/- 2%, the Hemolysis ratio (mouse erythrocytes; washed mouse erythrocytes, OD 530 nm) was -11.8 +/- 8% and the Hemolysis ratio (mouse erythrocytes; washed mouse erythrocytes, OD 570 nm) was -2.7 +/- 1.9%. The Hemolysis ratio (rabbit erythrocytes; Table S4: washed rabbit erythrocytes, OD 405 nm) was 4.6 +/- 0.7%, the Hemolysis ratio (rabbit erythrocytes; washed rabbit erythrocytes, OD 530 nm) was 1.7 +/- 3.6% and the Hemolysis ratio (rabbit erythrocytes; washed rabbit erythrocytes, OD 570 nm) was 2.2 +/- 1.4%. For the same compound, the “Fold decrease of hemolytic effect in rabbit whole blood vs washed rabbit erythrocytes” value (rabbit whole blood; cf. Tables S3 and S4, 100 μM) was 23 fold, the Hemolysis ratio (rabbit whole blood; OD 405 nm, neg. PBS) was 0.6 +/- 3.2% and the Hemolysis ratio (rabbit whole blood; OD 530 nm, pos. 10% SDS, neg. PBS) was 0.2 +/- 0.6%. For the same compound, the Hemolysis ratio (rabbit whole blood; OD 570 nm, pos. 10% Triton X-100, neg. PBS) was 0.2 +/- 0.5%, the Hemolysis ratio (rat erythrocytes; Table S4: washed rat erythrocytes, OD 405 nm) was 5.2 +/- 1.9% and the Hemolysis ratio (rat erythrocytes; washed rat erythrocytes, OD 530 nm) was 2.6 +/- 5.7%. The Hemolysis ratio (rat erythrocytes; washed rat erythrocytes, OD 570 nm) was 3.3 +/- 3%, the “Fluorescence intensity per cell of remaining intact cells (live/dead stain)” value [1] was “low fluorescence” and the Calculated hemolysis ratio (human whole blood; OD 405 nm (signal saturated), pos. 10% SDS) was 0.4 ± 0.2%. The Calculated hemolysis ratio (human whole blood; OD 530 nm, pos. 10% SDS) was 0.2%, the Calculated hemolysis ratio (human whole blood; OD 570 nm, pos. 10% Triton X-100 (table title; text says 10% SDS)) was −0.1% and the “Fold reduction in HR in human whole blood in comparison with washed erythrocytes measured at 405 nm” value (human whole blood; whole blood HR with 10% SDS as positive control (Table 5) vs washed erythrocytes (Table 6), 100 μM) was over 41 fold. For the same compound, the “Minimum inhibitory concentration (E. coli)” value (E. coli) was 4 µM (≈ 10 µg/mL), the Calculated hemolysis ratio ([2]; 1% washed human erythrocytes, OD 530 nm, peptides 100 μM, 60 min 37 °C, pos. 10% Triton X-100, neg. PBS, 3 x 2 replicates) was 5.2 ± 3% and the Calculated hemolysis ratio ([2]; 1% washed human erythrocytes, OD 570 nm, peptides 100 μM, 60 min 37 °C, pos. 10% Triton X-100, neg. PBS, 3 x 2 replicates) was 4.8 ± 6.6%. The “Calculated Hemolysis (%)” value ([2]; 2% pooled human erythrocytes, AMPs 100 µM, 60 min 37 °C, 405 nm, pos. 10% Triton X-100, neg. PBS, 3 x 2 replicates) was 5.6 ± 0.8%, the “Calculated Hemolysis (%)” value ([2]; 5% pooled human erythrocytes, AMPs 100 µM, 60 min 37 °C, 405 nm, pos. 10% Triton X-100, neg. PBS, 3 x 2 replicates) was 5.0 ± 3.3% and the Calculated hemolysis ratio ([2]; Table 1: 1% human erythrocytes, 100 µM, 60 min 37 °C, OD 405 nm, pos. 10% Triton X-100, neg. PBS, mean ± SD, 3 experimental x 2 technical replicates) was 8.5 ± 1.4%. The Calculated hemolysis ratio ([2]; Table 2: pooled blood from all 10 individuals, 1% erythrocytes, AMPs 100 µM, 60 min 37 °C, 405 nm, pos. 10% Triton X, neg. PBS, 3 x 2 replicates) was 12.4 ± 3.1%, the “Calculated Hemolysis (%)” value ([2]; Table 3: 1% pooled human erythrocytes, AMPs 100 µM, 60 min 37 °C, 405 nm, pos. 10% Triton X-100, neg. PBS, 3 x 2 replicates) was 12.4 ± 3.1% and the Calculated hemolysis ratio ([2]; Table 4: incubation 60 min, 37 °C, 1% human erythrocytes, AMPs 100 µM, 405 nm, pos. 10% Triton X-100, neg. PBS, 3 biological x 2 technical replicates) was 7.8 ± 1.3%. It also gave a Calculated hemolysis ratio ([2]; Table 6: 1% washed human erythrocytes, OD 405 nm, peptides 100 μM, 60 min 37 °C, pos. 10% Triton X-100, neg. PBS, 3 x 2 replicates) of 8.2 ± 1.4%, a Calculated hemolysis ratio ([2]; human individual # 1, 1% erythrocytes, AMPs 100 µM, 60 min 37 °C, 405 nm, pos. 10% Triton X, neg. PBS, 3 x 2 replicates) of 8.2 ± 1.3% and a Calculated hemolysis ratio ([2]; human individual # 2, 1% erythrocytes, AMPs 100 µM, 60 min 37 °C, 405 nm, pos. 10% Triton X, neg. PBS, 3 x 2 replicates) of 10 ± 0.7%. For the same compound, the Calculated hemolysis ratio ([2]; human individual # 3, 1% erythrocytes, AMPs 100 µM, 60 min 37 °C, 405 nm, pos. 10% Triton X, neg. PBS, 3 x 2 replicates) was 9.8 ± 0.8%, the Calculated hemolysis ratio ([2]; human individual # 4, 1% erythrocytes, AMPs 100 µM, 60 min 37 °C, 405 nm, pos. 10% Triton X, neg. PBS, 3 x 2 replicates) was 10.4 ± 0.9% and the Calculated hemolysis ratio ([2]; human individual # 5, 1% erythrocytes, AMPs 100 µM, 60 min 37 °C, 405 nm, pos. 10% Triton X, neg. PBS, 3 x 2 replicates) was 11 ± 1%. For the same compound, the Calculated hemolysis ratio ([2]; human individual # 6, 1% erythrocytes, AMPs 100 µM, 60 min 37 °C, 405 nm, pos. 10% Triton X, neg. PBS, 3 x 2 replicates) was 6.4 ± 0.7%, the Calculated hemolysis ratio ([2]; human individual # 7, 1% erythrocytes, AMPs 100 µM, 60 min 37 °C, 405 nm, pos. 10% Triton X, neg. PBS, 3 x 2 replicates) was 8.9 ± 0.8% and the Calculated hemolysis ratio ([2]; human individual # 8, 1% erythrocytes, AMPs 100 µM, 60 min 37 °C, 405 nm, pos. 10% Triton X, neg. PBS, 3 x 2 replicates) was 9.1 ± 1.1%. It also gave a Calculated hemolysis ratio ([2]; human individual # 9, 1% erythrocytes, AMPs 100 µM, 60 min 37 °C, 405 nm, pos. 10% Triton X, neg. PBS, 3 x 2 replicates) of 9.6 ± 1%, a Calculated hemolysis ratio ([2]; human individual # 10, 1% erythrocytes, AMPs 100 µM, 60 min 37 °C, 405 nm, pos. 10% Triton X, neg. PBS, 3 x 2 replicates) of 9.8 ± 0.7% and a Calculated hemolysis ratio ([2]; incubated in polypropylene tubes, 1% washed human erythrocytes, peptides 100 μM, 60 min 37 °C, 405 nm, pos. 10% Triton X-100, neg. PBS, 3 x 2 replicates) of 8.2 ± 2.6%. It also gave a Calculated hemolysis ratio ([2]; incubated in polystyrene tubes, 1% washed human erythrocytes, peptides 100 μM, 60 min 37 °C, 405 nm, pos. 10% Triton X-100, neg. PBS, 3 x 2 replicates) of 9.7 ± 3.4%, a Calculated hemolysis ratio ([2]; incubation 15 min, 37 °C, 1% human erythrocytes, AMPs 100 µM, 405 nm, pos. 10% Triton X-100, neg. PBS, 3 biological x 2 technical replicates) of 7.8 ± 1.1% and a Calculated hemolysis ratio ([2]; incubation 30 min, 37 °C, 1% human erythrocytes, AMPs 100 µM, 405 nm, pos. 10% Triton X-100, neg. PBS, 3 biological x 2 technical replicates) of 7.4 ± 1.2%. For the same compound, the Calculated hemolysis ratio ([2]; incubation 90 min, 37 °C, 1% human erythrocytes, AMPs 100 µM, 405 nm, pos. 10% Triton X-100, neg. PBS, 3 biological x 2 technical replicates) was 8 ± 0.8%, the Calculated hemolysis ratio ([2]; incubation 120 min, 37 °C, 1% human erythrocytes, AMPs 100 µM, 405 nm, pos. 10% Triton X-100, neg. PBS, 3 biological x 2 technical replicates) was 8.6 ± 1.4% and the “Observed hemolytic properties (qualitative)” value ([2]; reason for choice of the AMPs) was “low”. For the same compound, the Calculated hemolysis ratio ([2]; total incubation volume 100 μL, 1% washed human erythrocytes, peptides 100 μM, 60 min 37 °C, 405 nm, pos. 10% Triton X-100, neg. PBS, 3 x 2 replicates) was 9.7 ± 3.4% and the Calculated hemolysis ratio ([2]; total incubation volume 500 μL, 1% washed human erythrocytes, peptides 100 μM, 60 min 37 °C, 405 nm, pos. 10% Triton X-100, neg. PBS, 3 x 2 replicates) was 8.8 ± 3.9%.
